Experimental data as given in US10376453B1, “Composition for promoting hair growth containing novel pantetheine derivative” (KOREA INSTITUTE OF OCEAN SCIENCE AND TECHNOLOGY, priority 2016, dated 2019).

System: dermal papilla cells
Assay: Measurement of viability of dermal papilla cells (MTT); promotion of growth of dermal papilla cells
Assay type: cell-based, human
Settings: 24 hours culture, MTT absorbance at 570 nm, Control = 100
Description: For cell culture, Dulbecco's Modified Eagle Medium (DMEM), fetal bovine serum (FBS), 0.25% trypsin-1 mM EDTA, and penicillin-streptomycin were used, and dermal papilla cells were cultured at 37° C. in a humidified 5% CO2. The medium was replaced twice a week, and the cultured dermal papilla cells were washed with PBS within 6-7 days. Next, the attached cells were separated by 0.05% trypsin-0.02% EDTA, centrifuged, and then subcultured for experiments. Specifically, 200 μl of dermal papilla cells were dispensed into each well of a 96-well plate at a density of 1×10^4 cells/well, and cultured under the conditions of 37° C. and 5% CO2 for 18 hours so as to be attached to each well. After 18 hours, the medium was removed, and 200 μl of samples was added to each well having the cells attached thereto, followed by culture for 24 hours. After the medium was removed, 100 μl of a solution of 3-(4,5-dimethylthiazol)-2,5-diphenyltetrazoliumbromide(MTT), prepared by dissolving MTT in PBS at a concentration of 500 μg/ml, was added to the cultured cells, followed by culture for 4 hours under the same conditions as described above. The formed formazan crystal was dissolved in DMSO, and the absorbance at 570 nm was measured using an ELISA reader. The measured OD values ranging from 0.00 to 3.50 were used for the experimental results. The sample for treatment of the cells was used at concentrations of 0.5, 5 and 50 μM.

| Compound | Effect on the growth of dermal papilla cells (0.5 μM sample) | Effect on the growth of dermal papilla cells (5 μM sample) | Effect on the growth of dermal papilla cells (50 μM sample) |
| --- | --- | --- | --- |
| CC(C)(CO)[C@@H](O)C(=O)NCCC(=O)NCCSC(=O)c1ccc(O)cc1O [S7, 2,4-dihydroxybenzoyl-D-pantetheine] | 95.73 | 97.32 | 93.12 |
| C=CCCCCCCCCC(=O)SCCNC(=O)CCNC(=O)[C@H](O)C(C)(C)CO [S5, 10-undecenoyl-D-pantetheine] | 111.24 | 93.01 | 101.62 |
| Nc1cc(N2CCCCC2)nc(N)[n+]1[O-] [minoxidil, reference compound] | 146.66 | 146.52 | 140.29 |
| CCC(C)C(=O)SCCNC(=O)CCNC(=O)[C@H](O)C(C)(C)CO (stereo partly drawn) [S1, 2-methylbutyryl-D-pantetheine] | 113.31 | 129.65 | 139.19 |
| CC(C)CC(=O)SCCNC(=O)CCNC(=O)[C@H](O)C(C)(C)CO [S2, 3-methylbutyryl-D-pantetheine] | 121.04 | 114.65 | 121.28 |
| isobutyl formate-D-pantetheine [S6] | 130.57 | 112.94 | 135.95 |
| cinnamoyl-D-pantetheine [S3] | 119.77 | 122.38 | 133.33 |
| C=CCCC(=O)SCCNC(=O)CCNC(=O)[C@H](O)C(C)(C)CO [S4, 4-pentenoyl-D-pantetheine] | 116.88 | 122.89 | 111.97 |
